One experiment deals with T1, Wee1 kinase domain (Homo sapiens, UniProt P30291).
T1 construct: Wee1 kinase domain was purchased from Carna (catalog #05-177); purchased Carna 05-177
T1 sequence (P30291 299-569 limits assumed): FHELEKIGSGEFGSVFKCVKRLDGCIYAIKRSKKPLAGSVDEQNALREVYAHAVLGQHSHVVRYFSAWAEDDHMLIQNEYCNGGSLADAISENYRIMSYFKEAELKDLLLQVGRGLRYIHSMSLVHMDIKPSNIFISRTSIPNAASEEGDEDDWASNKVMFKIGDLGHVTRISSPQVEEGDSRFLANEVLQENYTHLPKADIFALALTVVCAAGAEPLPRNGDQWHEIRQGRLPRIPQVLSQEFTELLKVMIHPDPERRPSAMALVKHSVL
In words: Wee1 Kinase Biochemical Assay (ADP-Glo). The settings on record: 1 nM Wee1 enzyme, 15 uM ATP, 4 hours at 25° C. The essentials:
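1 nM enzyme; 15 uM ATP; 2 ng/mL poly(Lys,Tyr 4:1); 40 mM Tris-HCl, 20 mM MgCl2, 0.1 mg/mL BSA, 2 mM DTT; 4 h, 25 °C; ADP-Glo; % inhibition vs DMSO and saturating positive-control wells.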
With `CN(C)[C@H]1CCN(c2ccc(Nc3ncc4c(n3)N(c3ccccn3)[C@@H]3CC(C)(C)OC[C@]43C)cc2)C1` [Example 820, (4bR,8aR)-N-(4-((S)-3-(dimethylamino)pyrrolidin-1-yl)phenyl)-4b,7,7-trimethyl-9-(pyridin-2-yl)-4b,5,7,8,8a,9-hexahydropyrano[3′,4′:4,5]pyrrolo[2,3-d]pyrimidin-2-amine], the IC50 is < 0.01 µM.

Still in this experiment, the particulars now being: Wee1 kinase domain, 15 uM ATP, ADP-Glo.
Turning to `CN1C[C@@H]2CN(c3ccc(Nc4ncc5c(n4)N(c4cccc(N=S(C)(C)=O)n4)[C@H]4CC(C)(C)OC[C@@]54C)cc3)C[C@@H]2C1` (single isomer, unassigned) [Example 218], the IC50 lay within 0.01 to 0.1 µM. In turn, `C[C@H]1COC(=O)N1c1cccc(N2c3nc(Nc4ccc(N5CC6(CN(C)C6)C5)cc4)ncc3[C@]3(C)COC(C)(C)C[C@H]23)n1` (single isomer, unassigned) [Example 354] yielded an IC50 of 0.01 to 0.1 µM. On the same count and under the same terms, the same measure for `Cc1cc(Nc2ncc3c(n2)N(c2cccc(N4C(=O)OC[C@@H]4C)n2)[C@H]2CC(C)(C)OC[C@@]32C)ccc1[C@@H]1CCNC1` (single isomer, unassigned) [Example 268]: 0.01 to 0.1 µM; for `C[C@H]1COC(=O)N1c1cccc(N2c3nc(Nc4ccc(O[C@@H]5CCNC5)nc4)ncc3[C@]3(C)COC(C)(C)C[C@H]23)n1` (single isomer, unassigned) [Example 286]: 0.1 to 1 µM; for `CNCc1cccc(N2c3nc(Nc4ccc(N5CCC(F)(F)C5)cc4)ncc3[C@]3(C)COC(C)(C)C[C@H]23)n1` (single isomer, unassigned) [Example 21]: 0.1 to 1 µM. In turn, `C[C@H]1COC(=O)N1c1cccc(N2c3nc(Nc4cn(C5CCN(C)CC5)nn4)ncc3[C@]3(C)COC(C)(C)C[C@H]23)n1` (single isomer, unassigned) [Example 252] yielded an IC50 of 0.1 to 1 µM. On the same count and under the same terms, next, `CNCc1cccc(N2c3nc(Nc4ccc5c(c4)C(=O)N(C)CC5(C)C)ncc3[C@]3(C)COC(C)(C)C[C@H]23)n1` (single isomer, unassigned) [Example 91]: 0.1 to 1 µM. The same measure, in the same setting: the same measure for `CNCc1cccc(N2c3nc(Nc4ccc5c(c4)C(=O)N(C)C5)ncc3[C@]3(C)COC(C)(C)C[C@H]23)n1` (single isomer, unassigned) [Example 31]: 0.1 to 1 µM; for `CNCc1cccc(N2c3nc(Nc4ccc([C@H]5CCOC5)cc4)ncc3[C@]3(C)COC(C)(C)C[C@H]23)n1` (single isomer, unassigned) [Example 39]: 0.1 to 1 µM. Turning to `CN1Cc2cc(Nc3ncc4c(n3)N(c3cccc(N=S(C)(C)=O)n3)[C@H]3CC(C)(C)OC[C@@]43C)cnc2C1` (single isomer, unassigned) [Example 187], the IC50 is ≥ 1 µM.

In the case of `Cc1cc(Nc2ncc3c(n2)N(c2cccc(N4C(=O)OC[C@@H]4C)n2)[C@H]2CC(C)(C)OC[C@@]32C)ccc1N1C[C@@H]2C[C@H]1CN2C` (single isomer, unassigned) [Example 294], the IC50 was in the range of 0.01 to 0.1 µM.

`C[C@H]1COC(=O)N1c1cccc(N2c3nc(Nc4ccc(OC5CCN(C)CC5)nc4)ncc3[C@]3(C)COC(C)(C)C[C@H]23)n1` (single isomer, unassigned) [Example 334] came in with an IC50 of 0.1 to 1 µM.

`CN1CCC(n2cc(Nc3ncc4c(n3)N(c3cccc(C(C)(C)O)n3)[C@H]3CC(C)(C)OC[C@@]43C)cn2)CC1` (single isomer, unassigned) [Example 12] displayed an IC50 of 0.1 to 1 µM.

Still in this experiment, the particulars now being: class symbols; 1 nM Wee1 enzyme, 15 uM ATP, 4 hours at 25° C.
`CN1CC[C@H]2CN(c3ccc(Nc4ncc5c(n4)N(c4cccc(N6CCCC6=O)n4)[C@H]4CC(C)(C)OC[C@@]54C)cc3)C[C@H]21` [Example 689, 1-(6-((4bS,8aS)-4b,7,7-trimethyl-2-((4-((3aS,6aS)-1-methylhexahydropyrrolo[3,4-b]pyrrol-5(1H)-yl)phenyl)amino)-4b,7,8,8a-tetrahydropyrano[3′,4′:4,5]pyrrolo[2,3-d]pyrimidin-9(5H)-yl)pyridin-2-yl)pyrrolidin-2-one] gave an IC50 of 0.1 to 1 µM. `CN1C[C@@H]2CN(c3ccc(Nc4ncc5c(n4)N(c4cccc(N6CCOC6=O)n4)[C@H]4CC(C)(C)OC[C@@]54C)cc3)C[C@@H]2C1` [Example 693, 3-(6-((4bS,8aS)-46,7,7-trimethyl-2-((4-((3aR,6aS)-5-methylhexahydropyrrolo[3,4-c]pyrrol-2(1H)-yl)phenyl)amino)-4b,7,8,8a-tetrahydropyrano[3′,4′:4,5]pyrrolo[2,3-d]pyrimidin-9(5H)-yl)pyridin-2-yl)oxazolidin-2-one] had an IC50 of 0.1 to 1 µM. The molecule `CNCc1cccc(N2c3nc(Nc4ccc(N5[C@@H]6COC[C@H]5C6)cc4)ncc3[C@]3(C)COC(C)(C)C[C@H]23)n1` (single isomer, unassigned) [Example 480] had an IC50 of 0.1 to 1 µM. For `CN1C[C@H]2C[C@@H]1CN2c1ccc(Nc2ncc3c(n2)N(c2cccc(C(C)(C)O)n2)[C@H]2CC(C)(C)OC[C@@]32C)cc1Cl` (single isomer, unassigned) [Example 434], the IC50 was 0.01 to 0.1 µM. `CN[C@@H](C)c1cccc(N2c3nc(Nc4ccc(N5C[C@@H]6C[C@H]5CO6)cc4)ncc3[C@]3(C)COC(C)(C)C[C@H]23)n1` (single isomer, unassigned) [Example 580] registered an IC50 of 0.1 to 1 µM.

As to `CN1C[C@@H]2C[C@H]1CN2c1ccc(Nc2ncc3c(n2)N(c2cccc(N4CCCC4=O)n2)[C@H]2CC(C)(C)OC[C@@]32C)cc1F` [Example 641, 1-(6-((4bS,8aS)-2-((3-fluoro-4-((1S,4S)-5-methyl-2,5-diazabicyclo[2.2.1]heptan-2-yl)phenyl)amino)-4b,7,7-trimethyl-4b,7,8,8a-tetrahydropyrano[3′,4′:4,5]pyrrolo[2,3-d]pyrimidin-9(5H)-yl)pyridin-2-yl)pyrrolidin-2-one], the IC50 was in the range of 0.1 to 1 µM. In turn, `CN1C[C@@H]2C[C@H]1CN2c1ccc(Nc2ncc3c(n2)N(c2cccc(N4CCOC4=O)n2)[C@H]2CC(C)(C)OC[C@@]32C)cc1F` [Example 677, 3-(6-((4bS,8aS)-2-((3-fluoro-4-((1S,4S)-5-methyl-2,5-diazabicyclo[2.2.1]heptan-2-yl)phenyl)amino)-4b,7,7-trimethyl-4b,7,8,8a-tetrahydropyrano[3′,4′:4,5]pyrrolo[2,3-d]pyrimidin-9(5H)-yl)pyridin-2-yl)oxazolidin-2-one] had an IC50 of 0.01 to 0.1 µM. Same read-out and setting: next, `CN1C[C@@H]2C[C@H]1CN2c1ccc(Nc2ncc3c(n2)N(c2cccc(C(C)(C)O)n2)[C@H]2CC(C)(C)OC[C@@]32C)cc1Cl` (single isomer, unassigned) [Example 436]: 0.01 to 0.1 µM; `CN[C@H](C)c1cc(C)nc(N2c3nc(Nc4ccc(N5CCOCC5)cc4)ncc3[C@@]3(C)COC(C)(C)C[C@@H]23)c1` (single isomer, unassigned) [Example 557]: < 0.01 µM; `CC1(C)C[C@H]2N(c3cccc(C(C)(C)O)n3)c3nc(Nc4ccc(O[C@@H]5CCNC5)cc4)ncc3[C@@]2(C)CO1` (single isomer, unassigned) [Example 418]: 0.01 to 0.1 µM. The same measure, in the same setting: the same measure for `C[C@@H]1COC(=O)N1c1cccc(N2c3nc(Nc4ccc(N5CCN(C)CC5)cc4)ncc3[C@]3(C)COC(C)(C)C[C@H]23)n1` (single isomer, unassigned) [Example 588]: 0.01 to 0.1 µM; for `CNCc1cccc(N2c3nc(Nc4ccc(-n5ccnc5)c(F)c4)ncc3[C@]3(C)COC(C)(C)C[C@H]23)n1` (single isomer, unassigned) [Example 465]: 0.1 to 1 µM.
